Test systems include M14 melanoma; MDA-MB-231 breast; MDA-N; MALME-3M melanoma; KM12 colon; SK-MEL-2 melanoma; HCC-2998 colon; DU-145 prostate; OVCAR-5 ovarian; SNB-75 CNS; COLO 205 colon; SR leukemia; HL-60(TB) leukemia; BT-549 breast; NCI-H226 lung; HS 578T breast; HCT-116 colon; A549 NSCLC; HOP-92 NSCLC; DLD-1 colon.
Holding throughout (test): NCI tumour cell line growth inhibition, 48 h

Molecules are shown by their SMILES.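 Assay format: 96-well plates, 48-hour exposure. TGI: concentration producing complete growth inhibition.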 Where only a bound is given, the exact number is not on record here.

This is an account of results in PubChem BioAssay (NCI).

For `O=C1/C(=C/c2ccc([N+](=O)[O-])cc2)CCCc2ccccc21`, the TGI in the assay with M14 melanoma, in the assay on MDA-MB-231 breast, with MDA-N, in the assay with MALME-3M melanoma, with KM12 colon and in the assay with SK-MEL-2 melanoma was over 100 µM each time. In addition, the TGI in the assay on HCC-2998 colon, in the assay with DU-145 prostate, in the assay with OVCAR-5 ovarian, with SNB-75 CNS, in the assay on COLO 205 colon and in the assay with SR leukemia was over 100 µM throughout. Further, the TGI in the assay with HL-60(TB) leukemia was over 100 µM; in the assay with BT-549 breast it was over 100 µM; with NCI-H226 lung, over 100 µM; in the assay with HS 578T breast, 75.9 µM; in the assay on HCT-116 colon it was over 100 µM; in the assay on A549 NSCLC, over 100 µM. In the assay with HOP-92 NSCLC, this compound yielded a TGI of over 100 µM.

In the case of `CN1/C(=C\N=O)C(C)(C)N(O)C1(C)C`, the TGI with M14 melanoma, in the assay on MDA-MB-231 breast, in the assay with MDA-N, in the assay with MALME-3M melanoma, with KM12 colon and in the assay with SK-MEL-2 melanoma was over 100 µM in each case. Moreover, the TGI in the assay on HCC-2998 colon, in the assay on DU-145 prostate, in the assay on OVCAR-5 ovarian, in the assay on SNB-75 CNS, with COLO 205 colon and in the assay with SR leukemia was over 100 µM each time. Besides, the TGI with HL-60(TB) leukemia, with BT-549 breast, in the assay with NCI-H226 lung, with HS 578T breast, in the assay with HCT-116 colon and in the assay on A549 NSCLC was over 100 µM each time. This compound also came in with a TGI in the assay on HOP-92 NSCLC of over 100 µM.

Take `C=CC(=C)CCC(Br)C(C)(C)Br` (stereo not given): the TGI in the assay on M14 melanoma, with MDA-MB-231 breast, in the assay with MDA-N, in the assay on MALME-3M melanoma, in the assay on KM12 colon and in the assay with SK-MEL-2 melanoma was over 100 µM throughout. The TGI in the assay with HCC-2998 colon, with DU-145 prostate, in the assay on OVCAR-5 ovarian, in the assay on SNB-75 CNS, in the assay with COLO 205 colon and in the assay with SR leukemia was over 100 µM throughout. For the same compound, the TGI is 55.1 µM with HL-60(TB) leukemia; over 100 µM with BT-549 breast; over 100 µM in the assay with NCI-H226 lung; over 100 µM with HS 578T breast; over 100 µM in the assay on HCT-116 colon; over 100 µM in the assay on A549 NSCLC. Moreover, in the assay with HOP-92 NSCLC, the TGI is over 100 µM.

`Cc1nc(-c2cccnc2)sc1C(=O)CC(=O)C(=O)Nc1cccc(NC(=O)C(=O)CC(=O)c2sc(-c3cccnc3)nc2C)n1`: the TGI in the assay with M14 melanoma, with MDA-MB-231 breast, with MDA-N, in the assay on MALME-3M melanoma, in the assay with KM12 colon and in the assay with SK-MEL-2 melanoma was over 100 µM each time. In addition, the TGI with HCC-2998 colon, with DU-145 prostate, in the assay on OVCAR-5 ovarian, in the assay with SNB-75 CNS, in the assay with COLO 205 colon and with SR leukemia was over 100 µM throughout. Moreover, the TGI in the assay with HL-60(TB) leukemia, in the assay on BT-549 breast, with NCI-H226 lung, in the assay on HS 578T breast, in the assay on HCT-116 colon and with A549 NSCLC was over 100 µM throughout. The TGI in the assay with HOP-92 NSCLC is over 100 µM.

For the compound `CC(C)(C)OC(=O)NCC(c1c[nH]c2cc(Br)ccc12)c1c[nH]c2cc(Br)ccc12`, the TGI with M14 melanoma is 37.3 µM; with MDA-MB-231 breast, 32.4 µM; in the assay with MDA-N, 34.4 µM; with MALME-3M melanoma, 31.7 µM; in the assay on KM12 colon, 37.3 µM; with SK-MEL-2 melanoma it was 34 µM. Besides, the TGI in the assay on HCC-2998 colon was 38.4 µM; in the assay with DU-145 prostate it was 31.7 µM; in the assay on OVCAR-5 ovarian, 31.4 µM; with SNB-75 CNS, 49.6 µM; in the assay on COLO 205 colon, 34.7 µM; with SR leukemia it was over 100 µM. Moreover, the TGI in the assay on HL-60(TB) leukemia came to 64.2 µM; with BT-549 breast, 30.3 µM; in the assay with NCI-H226 lung, 34.5 µM; in the assay with HS 578T breast, 46.4 µM; in the assay on HCT-116 colon, 31.4 µM; in the assay on A549 NSCLC, 44.7 µM. Further, the TGI in the assay with HOP-92 NSCLC was found to be 28.6 µM.

Turning to `CCN(CC)CCOCCOCC1(c2ccc(Cl)c(Cl)c2)CCCCC1`, the TGI with M14 melanoma is 3.29 µM; in the assay on MDA-MB-231 breast, 23 µM; in the assay on MDA-N, 13.8 µM; with MALME-3M melanoma it was 13.3 µM; with KM12 colon, 17.3 µM; in the assay with SK-MEL-2 melanoma it was 28.6 µM. Also, the TGI in the assay with HCC-2998 colon stood at 14.8 µM; in the assay with DU-145 prostate it was 22.1 µM; in the assay on OVCAR-5 ovarian it was 24 µM; with SNB-75 CNS it was 20.4 µM; with COLO 205 colon, 11.9 µM; in the assay with SR leukemia, 26.8 µM. Also, the TGI in the assay on HL-60(TB) leukemia amounted to 21 µM; in the assay with BT-549 breast, 26 µM; in the assay on NCI-H226 lung it was 35.1 µM; in the assay with HS 578T breast, 13.8 µM; in the assay with HCT-116 colon, 18.8 µM; in the assay on A549 NSCLC, 23.1 µM. In the assay with HOP-92 NSCLC, the TGI was 17.7 µM.

`COc1ccc(CC2Cc3ccccc3CC(=O)N2)cc1OC` (stereo not given): the TGI in the assay on M14 melanoma, with MDA-MB-231 breast, in the assay with MDA-N, with MALME-3M melanoma, in the assay with KM12 colon and in the assay with SK-MEL-2 melanoma was over 100 µM each time. For the same compound, the TGI in the assay on HCC-2998 colon, in the assay with DU-145 prostate, with OVCAR-5 ovarian, in the assay on SNB-75 CNS, in the assay on COLO 205 colon and with SR leukemia was over 100 µM each time. Besides, the TGI in the assay on HL-60(TB) leukemia, in the assay on BT-549 breast, in the assay on NCI-H226 lung, in the assay on HS 578T breast, with HCT-116 colon and in the assay with A549 NSCLC was over 100 µM each time. The TGI with HOP-92 NSCLC is over 100 µM.

In the case of `COc1ccc2nc(N/N=C/c3ccc(C)s3)cc(C)c2c1`, the TGI was found to be 37.7 µM in the assay on M14 melanoma; 43.9 µM in the assay on MDA-MB-231 breast; 38.2 µM in the assay with MDA-N; 58.7 µM in the assay on MALME-3M melanoma; 39.8 µM in the assay with KM12 colon; 41.6 µM in the assay on SK-MEL-2 melanoma. Besides, the TGI is 33.5 µM in the assay with HCC-2998 colon; 34.7 µM with DU-145 prostate; 32.6 µM in the assay on OVCAR-5 ovarian; 46.4 µM in the assay with SNB-75 CNS; 38.5 µM with COLO 205 colon; 61 µM in the assay on SR leukemia. For the same compound, the TGI in the assay on HL-60(TB) leukemia is over 100 µM; with BT-549 breast, 29.6 µM; in the assay on NCI-H226 lung, 41 µM; in the assay with HS 578T breast it was 55.2 µM; in the assay with HCT-116 colon, 35.9 µM; with A549 NSCLC, over 100 µM. This compound also came in with a TGI in the assay with HOP-92 NSCLC of 43.2 µM.

For `Cc1cc(-c2nc3ccc(F)cc3s2)ccc1NC(=O)C(N)CCCCN` (stereo not given), the TGI is 6.57 µM with M14 melanoma; 23.1 µM in the assay on MDA-MB-231 breast; 5 µM with MDA-N; 34.1 µM in the assay on MALME-3M melanoma; 4.87 µM in the assay on KM12 colon; 23.1 µM with SK-MEL-2 melanoma. In addition, the TGI in the assay with HCC-2998 colon turned out to be 21.4 µM; in the assay on DU-145 prostate, 26.2 µM; with OVCAR-5 ovarian it was 22.5 µM; with SNB-75 CNS, 12.6 µM; in the assay on COLO 205 colon it was 14.8 µM; in the assay on SR leukemia, 8.18 µM. Also, the TGI with HL-60(TB) leukemia is 9.78 µM; in the assay with BT-549 breast, 28.3 µM; in the assay on NCI-H226 lung it was 24 µM; in the assay with HS 578T breast, 27.1 µM; in the assay with HCT-116 colon it was 10.3 µM; in the assay on A549 NSCLC, 5.54 µM. In the assay on HOP-92 NSCLC, this compound gave a TGI of 27.7 µM.

With `CCOC(=O)C1=NN(c2ccc(C)cc2)C2(c3ccccc3)C=C(c3ccccc3)N(C)CCN12` (stereo not given), the TGI with M14 melanoma, with MDA-MB-231 breast, in the assay with MDA-N, in the assay with MALME-3M melanoma, in the assay with KM12 colon and with SK-MEL-2 melanoma was over 100 µM each time. Moreover, the TGI in the assay on HCC-2998 colon, in the assay with DU-145 prostate, in the assay on OVCAR-5 ovarian, with SNB-75 CNS, in the assay on COLO 205 colon and in the assay on SR leukemia was over 100 µM in each case. Moreover, the TGI in the assay on HL-60(TB) leukemia, in the assay on BT-549 breast, in the assay with NCI-H226 lung, with HS 578T breast, with HCT-116 colon and in the assay on A549 NSCLC was over 100 µM throughout. Further, the TGI with HOP-92 NSCLC was over 100 µM.

As to `CC1=C(C(=O)O)N2C(=O)[C@@H](NC(=O)C(c3ccccc3)N3CSC(=S)N(C(C)C)C3)C2SC1` (stereo not given in full), the TGI in the assay with M14 melanoma, with MALME-3M melanoma, in the assay on KM12 colon, with SK-MEL-2 melanoma, with OVCAR-5 ovarian and with SNB-75 CNS was over 100 µM in each case. Besides, the TGI in the assay with COLO 205 colon, with HL-60(TB) leukemia, in the assay with DLD-1 colon, in the assay with HCT-116 colon and in the assay on HOP-92 NSCLC was over 100 µM in each case.

Turning to `CC1(C)C(CBr)=[N+]([O-])C(C)(C)N1O`, the TGI in the assay with M14 melanoma is 5.65 µM; in the assay with MDA-MB-231 breast, over 10 µM; in the assay on MDA-N it was over 10 µM; in the assay on MALME-3M melanoma, 7.06 µM; with KM12 colon it was over 10 µM; in the assay with SK-MEL-2 melanoma, over 10 µM. For the same compound, the TGI with HCC-2998 colon was over 10 µM; in the assay on DU-145 prostate, over 10 µM; in the assay with OVCAR-5 ovarian it was over 10 µM; in the assay with SNB-75 CNS, over 10 µM; in the assay on COLO 205 colon it was 3.75 µM; in the assay with SR leukemia, over 10 µM. The TGI in the assay on HL-60(TB) leukemia is over 6.81 µM; in the assay with BT-549 breast it was 5.43 µM; in the assay on NCI-H226 lung it was over 10 µM; with HS 578T breast, over 10 µM; in the assay with HCT-116 colon it was 5.27 µM; with A549 NSCLC, over 10 µM. Further, the TGI in the assay on HOP-92 NSCLC came out at 5.5 µM.
